Tests used:
Test in all cases: Determination of the minimum inhibitory concentration (MIC value) in microtitre plates
S. aureus = type: cell-based; conditions: optical density at 620 nm, 48 hours at 37° C., MIC = ≦20% growth; tested at 100; 10 and 1 ppm (approximate values); (2), (3), (4) at 120; 60; 30; 15; 7.5; 3.75 ppm
Source text: (§1) Determination of the Minimum Inhibitory Concentration (MIC Value) in Microtitre Plates Nutrient Medium Casein/soybean flour/peptone bouillon for the preparation of preliminary cultures of the test bacteria and yeast. Mycological slant agar for the preliminary culture of moulds Examples of Test Microbes: Bacteria: Staphylococcus hominis DMS 20328 Procedure: The test substances are pre-dissolved in dimethyl sulfoxide (DMSO) and tested in a series of dilutions of 1:2. Bacteria and yeast are cultured overnight in CASO bouillon; the mould is cultured on myco-logical slant agar and sponged off with 10 ml of 0.85% sodium chloride solution (+0.1% Triton X-100). All the test microbes are adjusted to a germ count of 1−5×10^6 KBE/ml using 0.85% sodium chloride solution. The test substances are pre-pipetted into microtitre plates in an amount of 8 μl per well. Pre-diluted microbe suspensions are diluted 1:100 in CASO bouillon (bacteria and yeast) or Sabouraud 2% glucose bouillon (mould) and added to the test substances in an amount of 192 μl per well. The test batches are incubated for 48 hours at 37° C. (bacteria and yeast) or for 5 days at 28° C. (mould). After incubation, the growth is determined by means of the clouding of the test batches (optical density) at 620 nm in a microplate reader. The concentration of substance at which (compared with the growth control) a marked inhibition of growth (≦20% growth) of the test microbes can be observed is given as the minimum inhibitory concentration (MIC value). One microtitre plate is used per test microbe and substance concentration. All substances are tested in duplicate.

E. coli = type: cell-based, Escherichia coli NCTC 8196; conditions: optical density at 620 nm, 48 hours at 37° C., MIC = ≦20% growth; tested at 100; 10 and 1 ppm (approximate values); (2), (3), (4) at 120; 60; 30; 15; 7.5; 3.75 ppm
Method: as §1, with “Escherichia coli NCTC 8196” for “Staphylococcus hominis DMS 20328”

A. niger = type: cell-based, Aspergillus niger ATCC 6275; conditions: optical density at 620 nm, 5 days at 28° C., MIC = ≦20% growth; tested at 100; 10 and 1 ppm (approximate values); (2), (3), (4) at 120; 60; 30; 15; 7.5; 3.75 ppm
Method: as §1, with “Mould: Aspergillus niger ATCC 6275” for “Bacteria: Staphylococcus hominis DMS 20328”

C. albicans = type: cell-based, Candida albicans ATCC 10231; conditions: optical density at 620 nm, 48 hours at 37° C., MIC = ≦20% growth; tested at 100; 10 and 1 ppm (approximate values); (2), (3), (4) at 120; 60; 30; 15; 7.5; 3.75 ppm
Method: as §1, with “Yeast: Candida albicans ATCC 10231” for “Bacteria: Staphylococcus hominis DMS 20328”

P. aeruginosa = type: cell-based, Pseudomonas aeruginosa CIP A-22; conditions: optical density at 620 nm, 48 hours at 37° C., MIC = ≦20% growth; tested at 100; 10 and 1 ppm (approximate values); (2), (3), (4) at 120; 60; 30; 15; 7.5; 3.75 ppm
Method: as §1, with “Pseudomonas aeruginosa CIP A-22” for “Staphylococcus hominis DMS 20328”

CCOc1cc(/C=C/c2nc(C(C)(C)C)cs2)ccc1O [Compound of formula (19)]
>100 ppm: MIC values in ppm S. aureus (S. aureus) | MIC values in ppm E. coli (E. coli) | MIC values in ppm A. niger (A. niger) | MIC values in ppm C. albicans (C. albicans) | MIC values in ppm P. aeruginosa (P. aeruginosa)

COc1cc(/C=C/c2nc(C(C)(C)C)cs2)ccc1O [Compound of formula (20)]
>100 ppm: MIC values in ppm S. aureus (S. aureus) | MIC values in ppm E. coli (E. coli) | MIC values in ppm A. niger (A. niger) | MIC values in ppm C. albicans (C. albicans) | MIC values in ppm P. aeruginosa (P. aeruginosa)

COc1ccc(/C=C/c2nc(C(C)(C)C)cs2)c(O)c1 [Compound of formula (21)]
>100 ppm: MIC values in ppm S. aureus (S. aureus) | MIC values in ppm E. coli (E. coli) | MIC values in ppm A. niger (A. niger) | MIC values in ppm C. albicans (C. albicans) | MIC values in ppm P. aeruginosa (P. aeruginosa)

COc1cc(/C=C/c2nc(C(C)(C)C)cs2)cc(O)c1OC [Compound of formula (22)]
>100 ppm: MIC values in ppm S. aureus (S. aureus) | MIC values in ppm E. coli (E. coli) | MIC values in ppm A. niger (A. niger) | MIC values in ppm C. albicans (C. albicans) | MIC values in ppm P. aeruginosa (P. aeruginosa)

Cc1cc(/C=C/c2nc(C(C)(C)C)cs2)cc(C)c1O [Compound of formula (23)]
>100 ppm: MIC values in ppm S. aureus (S. aureus) | MIC values in ppm E. coli (E. coli) | MIC values in ppm A. niger (A. niger) | MIC values in ppm C. albicans (C. albicans) | MIC values in ppm P. aeruginosa (P. aeruginosa)

Cc1cccc(/C=C/c2nc(C(C)(C)C)cs2)c1O [Compound of formula (24)]
>100 ppm: MIC values in ppm S. aureus (S. aureus) | MIC values in ppm E. coli (E. coli) | MIC values in ppm A. niger (A. niger) | MIC values in ppm C. albicans (C. albicans) | MIC values in ppm P. aeruginosa (P. aeruginosa)

CC(C)(C)c1csc(/C=C/c2ccc(OCc3ccccc3)cc2O)n1 [Compound of formula (25)]
>100 ppm: MIC values in ppm S. aureus (S. aureus) | MIC values in ppm E. coli (E. coli) | MIC values in ppm A. niger (A. niger) | MIC values in ppm C. albicans (C. albicans) | MIC values in ppm P. aeruginosa (P. aeruginosa)

COc1cc(O)ccc1/C=C/c1nc(C(C)(C)C)cs1 [Compound of formula (26)]
>100 ppm: MIC values in ppm S. aureus (S. aureus) | MIC values in ppm E. coli (E. coli) | MIC values in ppm A. niger (A. niger) | MIC values in ppm C. albicans (C. albicans) | MIC values in ppm P. aeruginosa (P. aeruginosa)

Oc1ccc(/C=C/c2nc(-c3ccc(N4CCCC4)cc3)cs2)cc1 [Compound of formula (27)]
>100 ppm: MIC values in ppm S. aureus (S. aureus) | MIC values in ppm E. coli (E. coli) | MIC values in ppm A. niger (A. niger) | MIC values in ppm C. albicans (C. albicans) | MIC values in ppm P. aeruginosa (P. aeruginosa)

Oc1cccc(/C=C/c2nc(-c3ccc(N4CCCC4)cc3)cs2)c1 [Compound of formula (28)]
>100 ppm: MIC values in ppm S. aureus (S. aureus) | MIC values in ppm E. coli (E. coli) | MIC values in ppm A. niger (A. niger) | MIC values in ppm C. albicans (C. albicans) | MIC values in ppm P. aeruginosa (P. aeruginosa)

COc1ccc(/C=C/c2nc(-c3ccc(N4CCCC4)cc3)cs2)cc1O [Compound of formula (29)]
>100 ppm: MIC values in ppm S. aureus (S. aureus) | MIC values in ppm E. coli (E. coli) | MIC values in ppm A. niger (A. niger) | MIC values in ppm C. albicans (C. albicans) | MIC values in ppm P. aeruginosa (P. aeruginosa)

CCOc1cc(/C=C/c2nc(-c3ccc(N4CCCC4)cc3)cs2)ccc1O [Compound of formula (30)]
>100 ppm: MIC values in ppm S. aureus (S. aureus) | MIC values in ppm E. coli (E. coli) | MIC values in ppm A. niger (A. niger) | MIC values in ppm C. albicans (C. albicans) | MIC values in ppm P. aeruginosa (P. aeruginosa)

COc1cc(/C=C/c2nc(-c3ccc(N4CCCC4)cc3)cs2)ccc1O [Compound of formula (31)]
>100 ppm: MIC values in ppm S. aureus (S. aureus) | MIC values in ppm E. coli (E. coli) | MIC values in ppm A. niger (A. niger) | MIC values in ppm C. albicans (C. albicans) | MIC values in ppm P. aeruginosa (P. aeruginosa)

COc1ccc(/C=C/c2nc(-c3ccc(N4CCCC4)cc3)cs2)c(O)c1 [Compound of formula (32)]
>100 ppm: MIC values in ppm S. aureus (S. aureus) | MIC values in ppm E. coli (E. coli) | MIC values in ppm A. niger (A. niger) | MIC values in ppm C. albicans (C. albicans) | MIC values in ppm P. aeruginosa (P. aeruginosa)

Reference: US6624182B1, “Hydroxyphenylvinylthiazoles” (Ciba Specialty Chemicals Corporation, priority 1999, dated 2003)
